Assay results: PMC7279002, “Novel 3′-Substituted-1′,2′,4′-Oxadiazole Derivatives of 18βH-Glycyrrhetinic Acid and Their O-Acylated Amidoximes: Synthesis and Evaluation of Antitumor and Anti-Inflammatory Potential In Vitro and In Vivo” (International Journal of Molecular Sciences, 2020)
Where two headings read alike, the source gives them in different places.

Assays:
[1] = system: human cervical carcinoma HeLa; assay: MTT cytotoxicity assay, 48 h; assay type: cell-based; details: for IC50: MTT, 48 h, read-out: IC50, µM Cervix HeLa; for Selectivity index: HeLa: IC50 in hFF3 / IC50 in HeLa
Method: (§1) On the first step of the biological evaluation of novel GA derivatives 3a-h, 4a-h, and 5a-h, we analyzed their cytotoxicity in a panel of cultured mammalian cells, including human cervical carcinoma HeLa and KB-3-1, human duodenal carcinoma HuTu-80, human lung adenocarcinoma A549, murine melanoma B16 cell lines, and nontransformed human fibroblasts hFF3. The cells were treated with derivatives for 48 h and cell viability was evaluated by 3-(4, 5-dimethylthiazol-2-yl)-2, 5-diphenyltetrazolium bromide (MTT) assay. Since the studied compounds contain two types of functional groups at position 3-acetoxy- or the hydroxyl-group, 3-acetoxy-GA 1 and GA-Me were used as references. Additionally, hierarchical clustering of cytotoxic data was carried out in order to reveal groups of compounds with similar cytotoxic profiles (Figure 2A).
(§2) Human cervical carcinoma HeLa and KB-3-1 cells, human duodenal carcinoma HuTu-80 cells, and human lung adenocarcinoma A549 cells were obtained from the Russian Culture Collection (Institute of Cytology, RAS, St. Petersburg, Russia). Melanoma B16-F10 (hereafter, melanoma B16) cells were obtained from the Cell Culture Bank of the Blokhin National Medical Oncology Research Center (Moscow, Russia). Nonmalignant fibroblasts hFF3 and RAW264.7 macrophages were kindly provided by Dr. Olga A. Koval (Institute of Chemical Biology and Fundamental Medicine, SB RAS, Novosibirsk, Russia) and Prof. Dmitry Kuprash (Engelhardt Institute of Molecular Biology, RAS, Moscow, Russia), respectively. The cells were cultured in DMEM (Sigma-Aldrich Inc., St. Louis, MO, USA) supplemented with 10% (v/v) heat-inactivated fetal bovine serum (FBS) (BioloT, St. Petersburg, Russia) and antibiotic–antimycotic solution (100 U/mL penicillin, 100 µg/mL streptomycin, 0.25 µg/mL amphotericin). […] The cells were incubated at 37 °C in a humidified 5% CO2-containing air atmosphere (hereafter referred to as standard conditions). GA derivatives were dissolved in DMSO (stock solutions: 10 mM) and stored at −20 °C prior to use.
(§3) Cells were seeded in tetra- or pentaplicates in 96-well plates at a density of 10^4 (tumor cells and […] fibroblasts) or 10^5 (RAW264.7 cells) cells per well. Cells were incubated under standard conditions for 24 h, followed by their treatment with the investigated derivatives (0.5–50 µM) or corresponding concentrations of DMSO (control) for a further 48 h (tumor cells and fibroblasts) or 24 h (RAW264.7 cells). At the end of incubation period, 10 µL of MTT solution was added to the cells (final concentration: 0.5 mg/mL) and plates were incubated for an additional 2 h under standard conditions. Then, the MTT-containing medium was aspirated and formazan crystals formed in living cells were solubilized with 100 µL of DMSO. The absorbance of each well was read at test and reference wavelengths of 570 and 620 nm, respectively, on a Multiscan RC plate reader (Thermo LabSystems, Helsinki, Finland). The IC50 values (the concentration of compounds leading to a decrease of A570 to 50% of A570^control) were calculated by extrapolation of the dose–response curves. […] A heatmap of SI values was constructed by Microsoft Excel 2010.

[2] = system: human duodenal carcinoma HuTu-80; assay: MTT cytotoxicity assay, 48 h; assay type: cell-based; details: for IC50: MTT, 48 h, read-out: IC50, µM Duodenum HuTu-80; for Selectivity index: HuTu-80: IC50 in hFF3 / IC50 in HuTu-80
Method: as §1, §2, §3

[3] = system: murine melanoma B16; assay: MTT cytotoxicity assay, 48 h; assay type: cell-based; details: for Selectivity index: B16: IC50 in hFF3 / IC50 in B16; for IC50: MTT, 48 h
Method: as §1, §2, §3

[4] = system: human cervical carcinoma KB-3-1; assay: MTT cytotoxicity assay, 48 h; assay type: cell-based; details: for IC50: MTT, 48 h, read-out: IC50, µM Cervix KB-3-1; for Selectivity index: KB-3-1: IC50 in hFF3 / IC50 in KB-3-1
Method: as §1, §2, §3

[5] = system: human lung adenocarcinoma A549; assay: MTT cytotoxicity assay, 48 h; assay type: cell-based; details: for IC50: MTT, 48 h; for Selectivity index: A549: IC50 in hFF3 / IC50 in A549
Method: as §1, §2, §3

[6] = system: nontransformed human fibroblasts hFF3; assay: MTT cytotoxicity assay, 48 h; assay type: cell-based
Method: as §1, §2, §3

[7] = system: HeLa, KB-3-1, HuTu-80, A549, B16 and hFF3 cells; assay: MTT cytotoxicity, summary over the panel of cell lines; assay type: cell-based; details: for IC50: median over all tested cell lines, read-out: median IC50
Method: as §1, §3

[8] = Homo sapiens, HFF-3, read-out: IC50, µM Fibroblast hFF3

Row | SMILES | IC50 ([1]; Homo sapiens, HeLa) [µM] | Selectivity index: HeLa [1] | IC50 ([2]; Homo sapiens, HuTu80) [µM] | Selectivity index: HuTu-80 [2] | Selectivity index: B16 [3] | IC50 ([3]; Mus musculus) [µM] | IC50 ([4]; Homo sapiens, KB 3-1) [µM] | Selectivity index: KB-3-1 [4] | IC50 ([5]; Homo sapiens, A549) [µM] | Selectivity index: A549 [5] | IC50 [6, 8] [µM] | melting point | IC50 [7] [µM] | IC50 [1] [µM] | IC50 [2] [µM] | IC50 [3] [µM] | IC50 [4] [µM] | IC50 [5] [µM] | IC50 ([6]; read-out: IC50, µM Fibroblast hFF3) [µM] | median SI ([7]; in all tumor cells)
1 | CC(=O)O[C@H]1CC[C@@]2(C)C(CC[C@]3(C)C2C(=O)C=C2[C@@H]4C[C@@](C)(C(=O)O/N=C(/N)C(C)C)CC[C@]4(C)CC[C@]23C)C1(C)C (stereo partly drawn) [Compound 3c] | 3 ± 0.2 | 0.9 | 2.1 ± 0.2 | 1.2 | 0.5 | 5.6 ± 0.2 | 4.9 ± 0.4 | 0.5 | 2.6 ± 0.1 | 1.0 | 2.6 ± 0.1 | 120.3 °C (dec.) |  |  |  |  |  |  |  | 
2 | CC(=O)O[C@H]1CC[C@@]2(C)C(CC[C@]3(C)C2C(=O)C=C2[C@@H]4C[C@@](C)(C(=O)O/N=C(/N)c5ccccc5)CC[C@]4(C)CC[C@]23C)C1(C)C (stereo partly drawn) [Compound 3e] | 5.8 ± 0.8 | 1.3 | 7.5 ± 0.1 | 1.0 | 0.4 | 16.4 ± 0.7 | 16 ± 1.4 | 0.5 | 4.9 ± 0.4 | 1.5 | 7.3 ± 0.3 | 144.6 to 145 °C |  |  |  |  |  |  |  | 
3 | CC(C)(C)c1noc([C@@]2(C)CC[C@]3(C)CC[C@]4(C)C(=CC(=O)C5[C@@]6(C)CC[C@H](O)C(C)(C)C6CC[C@]54C)[C@@H]3C2)n1 (stereo partly drawn) [Compound 5d, 30-nor-3β-hydroxy-11-oxo-20-(3′-tert-butyl-1′,2′,4′-oxadiazol-5′-yl)-18βH-olean-12-en] | 3.7 ± 0.9 | 5.8 | 8.8 ± 1.1 | 2.5 | 1.9 | 11.3 ± 1.9 | 22.3 ± 3.7 | 1.0 | 23.5 ± 6.3 | 0.9 | 21.6 ± 3.4 | 227.8 °C (dec.) | 16.5 |  |  |  |  |  |  | 
4 | CC(=O)O[C@H]1CC[C@@]2(C)C(CC[C@]3(C)C2C(=O)C=C2[C@@H]4C[C@@](C)(C(=O)O/N=C(/N)c5ccncc5)CC[C@]4(C)CC[C@]23C)C1(C)C (stereo partly drawn) [Compound 3h] | 7.1 ± 1.4 | 1.6 | 5.6 ± 0.1 | 2.0 | 1.4 | 7.8 ± 1.9 | 7 ± 1.4 | 1.6 | 7.1 ± 1.6 | 1.6 | 11.1 ± 0.5 | 161.3 °C (dec.) |  |  |  |  |  |  |  | 
5 | CC/C(N)=N\OC(=O)[C@@]1(C)CC[C@]2(C)CC[C@]3(C)C(=CC(=O)C4[C@@]5(C)CC[C@H](OC(C)=O)C(C)(C)C5CC[C@]43C)[C@@H]2C1 (stereo partly drawn) [Compound 3b] | 3.3 ± 0.2 | 0.9 | 2.4 ± 0.2 | 1.2 | 0.4 | 7.2 ± 0.6 | 6.7 ± 0.7 | 0.4 | 7.3 ± 3 | 0.4 | 2.9 ± 0.3 | 120 °C (dec.) |  |  |  |  |  |  |  | 
6 | CC(=O)O[C@H]1CC[C@@]2(C)C(CC[C@]3(C)C2C(=O)C=C2[C@@H]4C[C@@](C)(C(=O)O)CC[C@]4(C)CC[C@]23C)C1(C)C (stereo partly drawn) [Compound 1, 3β-acetoxy-11-oxo-18βH-olean-12-en-29-oic acid, reference compound] | 12.7 ± 1.1 | 1.1 | 2.9 ± 0.1 | 4.7 | 1.2 | 11.5 ± 1.5 | 7.4 ± 0.6 | 1.8 | 15.9 ± 2.3 | 0.9 | 13.6 ± 2.2 |  |  |  |  |  |  |  |  | 
7 | CC1(C)C2CC[C@]3(C)C(C(=O)C=C4[C@@H]5C[C@@](C)(c6nc(-c7ccncc7)no6)CC[C@]5(C)CC[C@]43C)[C@@]2(C)CC[C@@H]1O (stereo partly drawn) [Compound 5h, 30-nor-3β-hydroxy-11-oxo-20-(3′-(pyridin-4′′-yl)-1′,2′,4′-oxadiazol-5′-yl)-18βH-olean-12-en] | 3.5 ± 0.1 | > 14.3 | 4.7 ± 0.4 | > 10.6 |  | > 50 | 4.9 ± 0.3 | > 10.2 | > 50 |  | > 50 | 129.5 to 129.9 °C |  |  |  |  |  |  |  | 
8 | CC1(C)C2CC[C@]3(C)C(C(=O)C=C4[C@@H]5C[C@@](C)(c6nc(-c7cccnc7)no6)CC[C@]5(C)CC[C@]43C)[C@@]2(C)CC[C@@H]1O (stereo partly drawn) [Compound 5g, 30-nor-3β-hydroxy-11-oxo-20-(3′-(pyridin-3′′-yl)-1′,2′,4′-oxadiazol-5′-yl)-18βH-olean-12-en] | 4.6 ± 0.3 | > 10.9 | 4.7 ± 0.2 | > 10.6 |  | > 50 | 16.9 ± 1.4 | > 3.0 | > 50 |  | > 50 | 231.6 °C (dec.) |  |  |  |  |  |  |  | 
9 | CC(=O)O[C@H]1CC[C@@]2(C)C(CC[C@]3(C)C2C(=O)C=C2[C@@H]4C[C@@](C)(C(=O)O/N=C(/N)c5cccnc5)CC[C@]4(C)CC[C@]23C)C1(C)C (stereo partly drawn) [Compound 3g] | 6.1 ± 1 | 1.4 | 4.9 ± 0.3 | 1.7 | 1.0 | 8.9 ± 1.1 | 10 ± 0.9 | 0.9 | 5.6 ± 0.9 | 1.5 | 8.5 ± 0.3 | 149.7 °C (dec.) |  |  |  |  |  |  |  | 
10 | CC(=O)O[C@H]1CC[C@@]2(C)C(CC[C@]3(C)C2C(=O)C=C2[C@@H]4C[C@@](C)(C(=O)O/N=C(/N)c5ccccn5)CC[C@]4(C)CC[C@]23C)C1(C)C (stereo partly drawn) [Compound 3f] | 6.4 ± 1 | 1.2 | 6.9 ± 0.3 | 1.1 | 0.3 | 22.5 ± 3.1 | 10.9 ± 2.2 | 0.7 | 7.7 ± 1.8 | 1.0 | 7.6 ± 1 | 165.8 °C (dec.) |  |  |  |  |  |  |  | 
11 | COC(=O)[C@@]1(C)CC[C@]2(C)CC[C@]3(C)C(=CC(=O)[C@@H]4[C@@]5(C)CC[C@H](O)C(C)(C)[C@@H]5CC[C@]43C)[C@@H]2C1 [GA-Me, reference compound] |  | 6.1 |  | 10.9 | 10.9 |  |  | 10.9 |  | 8.2 |  |  | 1.1 | 0.9 ± 0.1 | 1.6 ± 0.5 | 0.9 ± 0.1 | 0.9 ± 0.1 | 1.2 ± 0.1 | 9.8 ± 1 | 10.9
